Experimental data as given in PMC8330742, “New benzothieno[2,3-c]pyridines as non-steroidal CYP17 inhibitors: design, synthesis, anticancer screening, apoptosis induction, and in silico ADME profile studies” (Journal of Enzyme Inhibition and Medicinal Chemistry, 2021).

How the values were obtained:
CCRF-CEM = assay: NCI-60 SRB screen; assay type: cell-based; settings: Homo sapiens, single dose 10^−5 M, read-out: Growth inhibition (%)
HL-60(TB) = assay: NCI-60 SRB screen; assay type: cell-based, human; settings: Homo sapiens; HL-60 (TB); single dose 10^−5 M; read-out: Growth inhibition (%)
K-562 = assay: NCI-60 SRB screen; assay type: cell-based, human; settings: Homo sapiens, K562; K-562; single dose 10^−5 M; read-out: Growth inhibition (%)
MOLT-4 = assay: NCI-60 SRB screen; assay type: cell-based; settings: Homo sapiens; MOLT-4; single dose 10^−5 M; read-out: Growth inhibition (%)
SR = assay: NCI-60 SRB screen; assay type: cell-based; settings: Homo sapiens, single dose 10^−5 M, read-out: Growth inhibition (%)
A549/ATCC = assay: NCI-60 SRB screen; assay type: cell-based, human; settings: Homo sapiens, single dose 10^−5 M, read-out: Growth inhibition (%)
EKVX = assay: NCI-60 SRB screen; assay type: cell-based, human; settings: Homo sapiens, single dose 10^−5 M, read-out: Growth inhibition (%)
HOP-62 = assay: NCI-60 SRB screen; assay type: cell-based, human; settings: Homo sapiens; HOP-62; single dose 10^−5 M; read-out: Growth inhibition (%)
NCI-H226 = assay: NCI-60 SRB screen; assay type: cell-based, human; settings: Homo sapiens; NCI-H226; single dose 10^−5 M; read-out: Growth inhibition (%)
NCI-H23 = assay: NCI-60 SRB screen; assay type: cell-based, human; settings: Homo sapiens; NCI-H23; single dose 10^−5 M; read-out: Growth inhibition (%)
NCI-H322M = assay: NCI-60 SRB screen; assay type: cell-based, human; settings: Homo sapiens, single dose 10^−5 M, read-out: Growth inhibition (%)
NCI-H460 = assay: NCI-60 SRB screen; assay type: cell-based, human; settings: Homo sapiens; NCI-H460; single dose 10^−5 M; read-out: Growth inhibition (%)
NCI-H522 = assay: NCI-60 SRB screen; assay type: cell-based, human; settings: Homo sapiens; NCI-H522; single dose 10^−5 M; read-out: Growth inhibition (%)
COLO 205 = assay: NCI-60 SRB screen; assay type: cell-based, human; settings: Homo sapiens; COLO 205; single dose 10^−5 M; read-out: Growth inhibition (%)
HCC-2998 = assay: NCI-60 SRB screen; assay type: cell-based, human; settings: Homo sapiens; HCC-2998; single dose 10^−5 M; read-out: Growth inhibition (%)
HCT-116 = assay: NCI-60 SRB screen; assay type: cell-based, human; settings: Homo sapiens; HCT-116; single dose 10^−5 M; read-out: Growth inhibition (%)
HCT-15 = assay: NCI-60 SRB screen; assay type: cell-based, human; settings: Homo sapiens; HCT-15; single dose 10^−5 M; read-out: Growth inhibition (%)
HT-29 = assay: NCI-60 SRB screen; assay type: cell-based; settings: Homo sapiens; HT-29; single dose 10^−5 M; read-out: Growth inhibition (%)
KM12 = assay: NCI-60 SRB screen; assay type: cell-based, human; settings: Homo sapiens; KM12; single dose 10^−5 M; read-out: Growth inhibition (%)
SW-620 = assay: NCI-60 SRB screen; assay type: cell-based; settings: Homo sapiens; SW-620; single dose 10^−5 M; read-out: Growth inhibition (%)
SF-268 = assay: NCI-60 SRB screen; assay type: cell-based, human; settings: Homo sapiens; SF-268; single dose 10^−5 M; read-out: Growth inhibition (%)
SF-295 = assay: NCI-60 SRB screen; assay type: cell-based, human; settings: Homo sapiens; SF-295; single dose 10^−5 M; read-out: Growth inhibition (%)
LOX IMVI = assay: NCI-60 SRB screen; assay type: cell-based, human; settings: Homo sapiens, single dose 10^−5 M, read-out: Growth inhibition (%)
MALME-3M = assay: NCI-60 SRB screen; assay type: cell-based, human; settings: Homo sapiens, single dose 10^−5 M, read-out: Growth inhibition (%)
M14 = assay: NCI-60 SRB screen; assay type: cell-based, human; settings: Homo sapiens; M14; single dose 10^−5 M; read-out: Growth inhibition (%)
MDA-MB-435 = assay: NCI-60 SRB screen; assay type: cell-based; settings: Homo sapiens, MDA-MB-435, read-out: Growth inhibition (%)
SK-MEL-2 = assay: NCI-60 SRB screen; assay type: cell-based, human; settings: Homo sapiens; SK-MEL-2; single dose 10^−5 M; read-out: Growth inhibition (%)
SK-MEL-28 = assay: NCI-60 SRB screen; assay type: cell-based; settings: Homo sapiens; SK-MEL-28; single dose 10^−5 M; read-out: Growth inhibition (%)
SK-MEL-5 = assay: NCI-60 SRB screen; assay type: cell-based, human; settings: Homo sapiens; SK-MEL-5; single dose 10^−5 M; read-out: Growth inhibition (%)
UACC-257 = assay: NCI-60 SRB screen; assay type: cell-based, human; settings: Homo sapiens, UACC-257; UACC-275 (so in the source); single dose 10^−5 M; read-out: Growth inhibition (%)
UACC-62 = assay: NCI-60 SRB screen; assay type: cell-based, human; settings: Homo sapiens; UACC-62; single dose 10^−5 M; read-out: Growth inhibition (%)
IGROV1 = assay: NCI-60 SRB screen; assay type: cell-based, human; settings: Homo sapiens, IGROV-1; IGROV1; single dose 10^−5 M; read-out: Growth inhibition (%)
OVCAR-3 = assay: NCI-60 SRB screen; assay type: cell-based, human; settings: Homo sapiens; OVCAR-3; single dose 10^−5 M; read-out: Growth inhibition (%)
OVCAR-4 = assay: NCI-60 SRB screen; assay type: cell-based, human; settings: Homo sapiens; OVCAR-4; single dose 10^−5 M; read-out: Growth inhibition (%)
OVCAR-8 = assay: NCI-60 SRB screen; assay type: cell-based, human; settings: Homo sapiens; OVCAR-8; single dose 10^−5 M; read-out: Growth inhibition (%)
NCI/ADR-RES = assay: NCI-60 SRB screen; assay type: cell-based, human; settings: Homo sapiens, single dose 10^−5 M, read-out: Growth inhibition (%)
SK-OV-3 = assay: NCI-60 SRB screen; assay type: cell-based, human; settings: Homo sapiens; SK-OV-3; single dose 10^−5 M; read-out: Growth inhibition (%)
786-0 = assay: NCI-60 SRB screen; assay type: cell-based; settings: Homo sapiens; 786-0; single dose 10^−5 M; read-out: Growth inhibition (%)
ACHN = assay: NCI-60 SRB screen; assay type: cell-based; settings: Homo sapiens, single dose 10^−5 M, read-out: Growth inhibition (%)
RXF 393 = assay: NCI-60 SRB screen; assay type: cell-based, human; settings: Homo sapiens; RXF 393; single dose 10^−5 M; read-out: Growth inhibition (%)
SN12C = assay: NCI-60 SRB screen; assay type: cell-based, human; settings: Homo sapiens, SN12C; SN 12 C; single dose 10^−5 M; read-out: Growth inhibition (%)
TK-10 = assay: NCI-60 SRB screen; assay type: cell-based, human; settings: Homo sapiens; TK-10; single dose 10^−5 M; read-out: Growth inhibition (%)
UO-31 = assay: NCI-60 SRB screen; assay type: cell-based, human; settings: Homo sapiens; UO-31; single dose 10^−5 M; read-out: Growth inhibition (%)
[1] = system: panel of 60 cancer cell lines; assay: NCI-60 SRB screen, mean or range over the panel; assay type: cell-based, human; settings: Homo sapiens; mean over the cell lines; single dose 10^−5 M; read-out: Mean growth inhibition (%)

O=[N+]([O-])c1cccc(C2NC(Cl)=C(Cl)c3c2sc2c(F)cccc32)c1 (centres unmarked) [Compound 7a, 3,4-Dichloro-8-fluoro-1-(3-nitrophenyl)-1,2-dihydro[1]benzothieno[2,3-c] pyridine]
inhibition at 10 µM (CCRF-CEM): 2.12% | inhibition at 10 µM (HL-60(TB)): -8.33% | inhibition at 10 µM (K-562): 18% | inhibition at 10 µM (MOLT-4): 15.2% | inhibition at 10 µM (SR): 16.2% | inhibition at 10 µM (A549/ATCC): 2.3% | inhibition at 10 µM (EKVX): 7.1% | inhibition at 10 µM (HOP-62): 15.5% | inhibition at 10 µM (NCI-H226): 14.2% | inhibition at 10 µM (NCI-H23): 8.55% | inhibition at 10 µM (NCI-H322M): -2.48% | inhibition at 10 µM (NCI-H460): 1.24% | inhibition at 10 µM (NCI-H522): 12.7% | inhibition at 10 µM (COLO 205): -14.6% | inhibition at 10 µM (HCC-2998): -16.1% | inhibition at 10 µM (HCT-116): 13.4% | inhibition at 10 µM (HCT-15): -1.63% | inhibition at 10 µM (HT-29): -1.97% | inhibition at 10 µM (KM12): 3.25% | inhibition at 10 µM (SW-620): 4.18% | inhibition at 10 µM (SF-268): 5.16% | inhibition at 10 µM (SF-295): -2.06% | inhibition at 10 µM (LOX IMVI): 1.24% | inhibition at 10 µM (MALME-3M): -2.96% | inhibition at 10 µM (M14): 4.95% | inhibition at 10 µM (MDA-MB-435): -9.15% | inhibition at 10 µM (SK-MEL-2): -5.95% | inhibition at 10 µM (SK-MEL-28): -11.4% | inhibition at 10 µM (SK-MEL-5): 1.94% | inhibition at 10 µM (UACC-257): -7.18% | inhibition at 10 µM (UACC-62): 7.18% | inhibition at 10 µM (IGROV1): 10.7% | inhibition at 10 µM (OVCAR-3): -3.96% | inhibition at 10 µM (OVCAR-4): 3.16% | inhibition at 10 µM (OVCAR-8): 1.9% | inhibition at 10 µM (NCI/ADR-RES): -2.76% | inhibition at 10 µM (SK-OV-3): 5.95% | inhibition at 10 µM (786-0): -7.16% | inhibition at 10 µM (ACHN): 6.96% | inhibition at 10 µM (RXF 393): 7.81% | inhibition at 10 µM (SN12C): 2.54% | inhibition at 10 µM (TK-10): -37.2% | inhibition at 10 µM (UO-31): 30.2% | inhibition at 10 µM [1]: 3.15%
